The values that follow come from patent publication US20140039007A1, “COMPOSITIONS AND METHODS FOR MODULATING FARNESOID X RECEPTORS” (priority 2010, published 2014).

The assay deals with T1, human GST-FXR LBD (Homo sapiens, UniProt Q96RI1).
T1 construct: purchased Invitrogen
T1 sequence (Q96RI1 193-472 isoform Q96RI1-2): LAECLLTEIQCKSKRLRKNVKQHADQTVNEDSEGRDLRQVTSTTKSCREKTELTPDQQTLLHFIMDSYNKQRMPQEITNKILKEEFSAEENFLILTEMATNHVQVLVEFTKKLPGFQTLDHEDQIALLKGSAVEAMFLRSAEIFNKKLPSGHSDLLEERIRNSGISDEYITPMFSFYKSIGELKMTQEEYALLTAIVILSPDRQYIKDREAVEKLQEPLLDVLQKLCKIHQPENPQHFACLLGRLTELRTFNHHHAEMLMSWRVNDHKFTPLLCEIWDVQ
Description: Human GST-FXR LBD Co-activator interaction Assay (FXR HTRF assay). Type of assay: biochemical. Particulars: GST-FXR LBD / biotin-labeled SRC-1 peptide, response relative to GW4064. The source says: Human GST-FXR LBD Co-activator interaction Assay.
The FXR HTRF assay is a biochemical assay measuring the interaction between FXR and a coactivator protein (SRC1). The ligand-induced interaction with a coactivator protein is a critical step in transcriptional activation by FXR. Thus, this is an assay designed to measure FXR agonist activity of compounds.
Recombinant human Farnesoid X Receptor (FXR) ligand binding domain (amino acids 193-472) fused to glutathione S-transferase (GST) purified protein (GST-FXR LBD) was purchased (Invitrogen). The ligand-dependent interaction between GST-FXR LBD and a peptide derived from Steroid Receptor Coactivator-1 (SRC-1) was monitored by Fluorescence Resonance Energy Transfer (FRET). GST-FXR LBD was mixed with a biotin-labeled SRC-1 peptide (Sequence: Biotin-[…]-SPS-CONH2, American Peptide) in assay buffer (50 mM Tris HCl, pH 7.4, 50 mM NaCl, 1 mM TCEP and 0.2% bovine serum albumen) and plated in 384 black Proxi plates (Greiner Bio-One). Test compounds (in DMSO solution) and detection reagents (anti-GST-Cryptate labeled antibody and Streptavidin-XL665 conjugate; CisBio) were added in assay buffer containing 50 mM KF. Plates are incubated at room temperature in the dark for 2.5 hours before reading on an Envision (PerkinElmer) at 665 nm and 590 nm. The HTRF assay results were calculated from the 665 nm/590 nm ratio (ratio=(A665 nm/A590 nm)×10^4) and expressed in Delta F %=(Ratiosample−Rationegative)/Rationegative×100.
A negative control (without Streptavidin-XL665) was run with each assay and represented the background fluorescence. A reference FXR agonist, GW4064, was included in each experiment as positive control. The efficacy of each test compound was compared to that of GW4064. At each concentration, the relative activity of the test compound was expressed as Response %=(Rsample−RDMSO)/(Rpositive−RDMSO), where Rsample is the HTRF response, (expressed in Delta F %) for the test compound, Rpositive is the maximal response for GW4064 at saturating concentrations, and RDMSO is the response for DMSO control. The EC50 values were calculated using GraphPad Prism (GraphPad Software) using non-linear regression curve fit (log(agonist) vs. response−variable slope (four parameters)).
For orientation: In TR-FRET formats the signal depends on donor and acceptor labels being close together.
As to `COC(=O)c1ccc(-c2nc(N3CCC(OCc4c(-c5c(Cl)cccc5Cl)noc4C4CC4)CC3)no2)cc1` [Example 4A], the EC50 (usually the concentration at which the effect is half-maximal) stood at 812 nM. The same measure for `COC(=O)C1CCC(c2nc(N3CCC(OCc4c(-c5c(Cl)cccc5Cl)noc4C4CC4)CC3)no2)CC1` (stereo not shown) [Example 6A, methyl 4-[3-(4-{[5-cyclopropyl-3-(2,6-dichlorophenyl)-1,2-oxazol-4-yl]methoxy}piperidin-1-yl)-1,2,4-oxadiazol-5-yl]cyclohexane-1-carboxylate]: 1620 nM. `O=C(O)c1ccc(-c2nc(N3CCC(OCc4c(-c5c(Cl)cccc5Cl)noc4C4CC4)CC3)no2)s1` [Example 8B, 5-[3-(4-{[5-cyclopropyl-3-(2,6-dichlorophenyl)-1,2-oxazol-4-yl]methoxy}piperidin-1-yl)-1,2,4-oxadiazol-5-yl]thiophene-2-carboxylic acid]: a half-maximal effect (EC50) was put at 105 nM. The same measure for `O=C(O)c1ccc(-c2nc(N3CCC(OCc4c(-c5c(Cl)cccc5Cl)noc4C4CC4)CC3)no2)cc1` [Example 4B]: 114 nM. With `O=C(O)c1cccc(-c2nc(N3CCC(OCc4c(-c5c(Cl)cccc5Cl)noc4C4CC4)CC3)no2)n1` [Example 9B, 6-[3-(4-{[5-cyclopropyl-3-(2,6-dichlorophenyl)-1,2-oxazol-4-yl]methoxy}piperidin-1-yl)-1,2,4-oxadiazol-5-yl]pyridine-2-carboxylic acid] the figure was 128 nM; with `O=C(O)c1cccc(-c2nc(N3CCC(OCc4c(-c5c(Cl)cccc5Cl)noc4C4CC4)CC3)no2)c1` [Example 5B, 3-[3-(4-{[5-cyclopropyl-3-(2,6-dichlorophenyl)-1,2-oxazol-4-yl]methoxy}piperidin-1-yl)-1,2,4-oxadiazol-5-yl]benzoic acid], 60 nM. With `O=C(O)c1ccc(-c2nc(N3CCC(OCc4c(-c5ccccc5OC(F)(F)F)noc4C4CC4)CC3)no2)cc1` [Example 1B, 4-(3-(4-((5-cyclopropyl-3-(2-(trifluoromethoxy)phenyl)isoxazol-4-yl)methoxy)piperidin-1-yl)-1,2,4-oxadiazol-5-yl)benzoic acid] the figure was 90 nM. On to `O=C(O)c1ccc(-c2nc(N3CCC(OCc4c(-c5ccccc5C(F)(F)F)noc4C4CC4)CC3)no2)cc1` [Example 11, 4-{3-[4-({5-cyclopropyl-3-[2-(trifluoromethyl)phenyl]-1,2-oxazol-4-yl}methoxy)piperidin-1-yl]-1,2,4-oxadiazol-5-yl}benzoic acid], for which a half-maximal effect (EC50) was put at 587 nM. The same measure for `COC(=O)c1cccc(-c2nc(N3CCC(OCc4c(-c5c(Cl)cccc5Cl)noc4C4CC4)CC3)no2)n1` [Example 9A, methyl 6-[3-(4-{[5-cyclopropyl-3-(2,6-dichlorophenyl)-1,2-oxazol-4-yl]methoxy}piperidin-1-yl)-1,2,4-oxadiazol-5-yl]pyridine-2-carboxylate]: 463 nM; for `COC(=O)c1cccc(-c2nc(N3CCC(OCc4c(-c5ccccc5OC(F)(F)F)noc4C4CC4)CC3)no2)c1` [Example 2A, methyl 3-{3-[4-({5-cyclopropyl-3-[2-(trifluoromethoxy)phenyl]-1,2-oxazol-4-yl}methoxy)piperidin-1-yl]-1,2,4-oxadiazol-5-yl}benzoate]: 2020 nM. The same measure for `O=C(O)C1CCC(c2nc(N3CCC(OCc4c(-c5c(Cl)cccc5Cl)noc4C4CC4)CC3)no2)CC1` (stereo not shown) [Example 6B, 4-[3-(4-{[5-cyclopropyl-3-(2,6-dichlorophenyl)-1,2-oxazol-4-yl]methoxy}piperidin-1-yl)-1,2,4-oxadiazol-5-yl]cyclohexane-1-carboxylic acid]: 823 nM; for `COC(=O)c1ccc(-c2nc(N3CCC(OCc4c(-c5ccccc5OC(F)(F)F)noc4C4CC4)CC3)no2)cc1` [Example 1A, Methyl 4-(3-(4-((5-cyclopropyl-3-(2-(trifluoromethoxy)phenyl)isoxazol-4-yl)methoxy)piperidin-1-yl)-1,2,4-oxadiazol-5-yl)benzoate]: 2380 nM; for `O=C(O)c1cccc(-c2nc(N3CCC(OCc4c(-c5ccccc5OC(F)(F)F)noc4C4CC4)CC3)no2)c1` [Example 2B, 3-{3-[4-({5-cyclopropyl-3-[2-(trifluoromethoxy)phenyl]-1,2-oxazol-4-yl}methoxy)piperidin-1-yl]-1,2,4-oxadiazol-5-yl}benzoic acid]: 128 nM. In turn, `COC(=O)c1ccc(-c2nc(N3CCC(OCc4c(-c5ccccc5OC(F)(F)F)noc4C4CC4)CC3)no2)s1` [Example 3A, methyl 5-{3-[4-({5-cyclopropyl-3-[2-(trifluoromethoxy)phenyl]-1,2-oxazol-4-yl}methoxy)piperidin-1-yl]-1,2,4-oxadiazol-5-yl}thiophene-2-carboxylate] gave an EC50 of 946 nM. In turn, `O=C(O)c1ccc(-c2nc(N3CCC(OCc4c(-c5ccccc5OC(F)(F)F)noc4C4CC4)CC3)no2)s1` [Example 3B, 5-{3-[4-({5-cyclopropyl-3-[2-(trifluoromethoxy)phenyl]-1,2-oxazol-4-yl}methoxy)piperidin-1-yl]-1,2,4-oxadiazol-5-yl}thiophene-2-carboxylic acid] showed an EC50 of 275 nM. With `O=C(O)C1CCC(c2nc(N3CCC(OCc4c(-c5c(Cl)cccc5Cl)noc4C4CC4)CC3)no2)C1` (stereo not shown) [Example 7B, 3-[3-(4-{[5-cyclopropyl-3-(2,6-dichlorophenyl)-1,2-oxazol-4-yl]methoxy}piperidin-1-yl)-1,2,4-oxadiazol-5-yl]cyclopentane-1-carboxylic acid] the figure was 1560 nM. With `COC(=O)c1ccc(-c2nc(N3CCC(OCc4c(-c5c(Cl)cccc5Cl)noc4C4CC4)CC3)no2)s1` [Example 8A, methyl 5-[3-(4-{[5-cyclopropyl-3-(2,6-dichlorophenyl)-1,2-oxazol-4-yl]methoxy}piperidin-1-yl)-1,2,4-oxadiazol-5-yl]thiophene-2-carboxylate] the figure was 2950 nM; with `COC(=O)C1CCC(c2nc(N3CCC(OCc4c(-c5c(Cl)cccc5Cl)noc4C4CC4)CC3)no2)C1` (stereo not shown) [Example 7A, methyl-3-[3-(4-{[5-cyclopropyl-3-(2,6-dichlorophenyl)-1,2-oxazol-4-yl]methoxy}piperidin-1-yl)-1,2,4-oxadiazol-5-yl]cyclopentane-1-carboxylate], 1590 nM; with `O=C(O)c1ccc(-c2nc(N3CCC(OCc4c(-c5c(F)cccc5F)noc4C4CC4)CC3)no2)cc1` [Example 10, 4-[3-(4-{[5-cyclopropyl-3-(2,6-difluorophenyl)-1,2-oxazol-4-yl]methoxy}piperidin-1-yl)-1,2,4-oxadiazol-5-yl]benzoic acid], 934 nM.
